Assay results: ChEMBL document CHEMBL4613212, “Insights of synthetic analogues of anti-leprosy agents” (Bioorg Med Chem, 2019)
In brackets after ≈: the same amount, converted by molar mass.

Assays:
[1] = Inhibition of Mycobacterium smegmatis ATCC 607 dihydrofolic reductase; set-up: species or system Mycolicibacterium smegmatis
[2] = tested on: Mycolicibacterium smegmatis; experiment: Inhibition of Mycobacterium smegmatis ATCC 607 dihydrofolic reductase assessed as ratio of Km to Ki
[3] = tested on: Mycolicibacterium smegmatis; experiment: Antimicrobial activity against Mycobacterium smegmatis ATCC 607; assay type: functional; conditions: Mycolicibacterium smegmatis, ATCC 607; read-out: MIC
[4] = tested on: Mycolicibacterium smegmatis; experiment: Antimicrobial activity against Mycobacterium smegmatis incubated for 24 hrs by broth microdilution assay; assay type: functional
[5] = tested on: Mycolicibacterium aurum; experiment: Antimicrobial activity against Mycobacterium aurum incubated for 24 hrs by broth microdilution assay; assay type: functional
[6] = tested on: Mycolicibacterium vaccae; experiment: Antimicrobial activity against Mycobacterium vaccae incubated for 24 hrs by broth microdilution assay; assay type: functional
[7] = tested on: Mycolicibacterium fortuitum; experiment: Antimicrobial activity against Mycobacterium fortuitum incubated for 24 hrs by broth microdilution assay; assay type: functional
[8] = tested on: Monocyte; experiment: Antiinflammatory activity in human monocytes assessed as inhibition of LPS-induced TNFaplha production at 50 uM preincubated for 15 mins followed by LPS addition and measured after 4 hrs by ELISA relative to control; assay type: functional
[9] = Cytotoxicity against LPS-induced human monocytes assessed as cell viability at 50 uM by tryphan blue staining based assay relative to control; set-up: species or system Monocyte; conditions: read-out: Activity
[10] = tested on: Mycolicibacterium smegmatis; experiment: Antimycobacterial activity against Mycobacterium smegmatis mc2 155 incubated for 2 days by spectrophotometric based assay; assay type: functional; conditions: MC2 155, 48 h
[11] = tested on: Plasmodium berghei; experiment: Antimalarial activity against Plasmodium berghei infected in albino mouse assessed survival against infection at 400 mg/kg, sc administered as single dose; assay type: functional
[12] = tested on: Mycobacterium leprae; experiment: Anti-leprotic activity against Mycobacterium leprae infected in albino mouse assessed survival against infection at 400 mg/kg, sc administered 58 days post-infection and subsequent compound dosing at 200 mg/kg at 0.5, 1 or 2 months interval; assay type: functional
[13] = Drug excretion in rat urine at 400 mg/kg, sc administered as single dose measured after 30 days; assay type: ADME, organism-based; conditions: read-out: Drug excretion
[14] = Half life in rat at 400 mg/kg, sc administered as single dose; assay type: ADME, organism-based; conditions: in vivo
[15] = Drug concentration in rat blood at 400 mg/kg, sc administered as single dose; assay type: ADME, organism-based; conditions: in vivo
[16] = tested on: Rattus norvegicus; experiment: Effect of metallo-protein haemoglobin in rat assessed as peak methemoglobin level at 400 mg/kg, sc administered as single dose; assay type: ADME, organism-based; conditions: in vivo
[17] = tested on: Mycobacterium leprae; experiment: Anti-leprotic activity against Mycobacterium leprae infected in 538 CBA mouse assessed as number of Mycobacterium leprae in paw pads at 2 mg/kg administrated via gastric tube 5 times a week and measured 7 months post infection; assay type: functional
[18] = tested on: Mycobacterium leprae; experiment: Anti-leprotic activity against Mycobacterium leprae infected in 538 CBA mouse assessed as number of Mycobacterium leprae in paw pads at 6 mg/kg administrated via gastric tube 5 times a week and measured 7 months post infection; assay type: functional
[19] = tested on: Monocyte; experiment: Antiinflammatory activity in human monocytes assessed as inhibition of LPS-induced TNFaplha production at 25 uM preincubated for 15 mins followed by LPS addition and measured after 4 hrs by ELISA relative to control; assay type: functional

Nc1nc(N)c2nc(Cc3ccccc3)cnc2n1
Ki [1]: 0.9 nM
Ratio [2]: 4560
MIC [3]: > 794 µM

Nc1nc(N)c2nc(Cc3ccc(Cl)c(Cl)c3)cnc2n1
Ki [1]: 2 nM
Ratio [2]: 58.5
MIC [3]: > 311 µM

N#Cc1cc([N+](=O)[O-])cnc1SC(=S)N1CCCCC1
MIC [4]: 3.12 mg/L (≈ 10.1 µM)
MIC [5]: 1.56 mg/L (≈ 5.06 µM)
MIC [6]: 1.56 mg/L (≈ 5.06 µM)
MIC [7]: 1.56 mg/L (≈ 5.06 µM)

COc1cc(Cc2cnc3nc(N)nc(N)c3n2)cc(OC)c1OC
Ki [1]: 5 nM
Ratio [2]: 230
MIC [3]: 347 µM (≈ 119 µg/mL)

CCc1nc(N)nc(N)c1-c1ccc(Cl)cc1 [PYRIMETHAMINE]
Ki [1]: 75 nM
Ratio [2]: 0.8
MIC [3]: 101 µM (≈ 25.1 µg/mL)

CCC1(N2C(=O)c3ccccc3C2=O)C(=O)NC(=O)N(C2CCCCC2)C1=O (stereo unspecified)
inhibition at 50 µM [8]: < 10%
viability at 50 µM [9]: 87%

O=C1c2ccccc2C(=O)N1c1ccc(S(=O)(=O)Nc2ccccn2)cn1
MIC99 [10]: 6100 µM (≈ 2320 µg/mL)

CC(=O)Nc1ccc(S(=O)(=O)c2ccc(NC(C)=O)c(C)c2)cc1
Survival [11]: 9 weeks
Survival [12]: >8 weeks
dose excreted at 720 h [13]: 31%
half-life [14]: 35 days
Drug uptake [15]: 0.7 µg/mL
Activity [16]: 1 g/dL

NC(=O)c1cc([N+](=O)[O-])cc([N+](=O)[O-])c1SC(=S)N1CCCC1
MIC [4]: 50 mg/L (≈ 140 µM)
MIC [5]: 6.25 mg/L (≈ 17.5 µM)
MIC [6]: 0.4 mg/L (≈ 1.12 µM)
MIC [7]: 6.25 mg/L (≈ 17.5 µM)

COc1ncnc(SC(=S)N2CCCC2)c1[N+](=O)[O-]
MIC [4]: 3.12 mg/L (≈ 10.4 µM)
MIC [5]: 1.56 mg/L (≈ 5.19 µM)
MIC [6]: 0.8 mg/L (≈ 2.66 µM)
MIC [7]: 1.56 mg/L (≈ 5.19 µM)
Activity [17]: 0.07 ×10⁷ No_unit
Activity [18]: 0.029 ×10⁷ No_unit

CC(=O)Nc1ccc(S(=O)(=O)c2ccc(NC(C)=O)cc2)cc1 [ACEDAPSONE]
Survival [11]: 12 weeks
Survival [12]: >8 weeks
dose excreted at 720 h [13]: 7%
half-life [14]: > 200 days
Drug uptake [15]: 0.2 µg/mL
Activity [16]: 0 g/dL

CN(C)c1ncnc(SC(=S)N2CCCC2)c1[N+](=O)[O-]
MIC [4]: 3.12 mg/L (≈ 9.96 µM)
MIC [5]: 3.12 mg/L (≈ 9.96 µM)
MIC [6]: 1.56 mg/L (≈ 4.98 µM)
MIC [7]: 1.56 mg/L (≈ 4.98 µM)
Activity [17]: 4.43 ×10⁷ No_unit
Activity [18]: 2.14 ×10⁷ No_unit

CC(=O)Nc1ccc(S(=O)(=O)c2ccc(/N=C/c3ccc(/C=N/c4ccc(S(=O)(=O)c5ccc(NC(C)=O)cc5)cc4)cc3)cc2)cc1
Survival [11]: 5 - 7 weeks
Survival [12]: >8 weeks
dose excreted at 720 h [13]: 40%
half-life [14]: 55 days
Drug uptake [15]: 0.4 µg/mL
Activity [16]: 0.2 g/dL

CCCCCc1cnc2nc(N)nc(N)c2n1
Ki [1]: 1.2 nM
Ratio [2]: 3420
MIC [3]: 862 µM (≈ 200 µg/mL)

CC(=O)Nc1ccc(S(=O)(=O)c2ccc(N(C)C(C)=O)cc2)cc1
Survival [11]: 6 weeks
Survival [12]: >8 weeks
dose excreted at 720 h [13]: 44%
half-life [14]: 27 days

COc1cc(Oc2cnc(N)nc2N)cc(OC)c1Br
Activity [17]: 1.27 ×10⁷ No_unit
Activity [18]: 0.56 ×10⁷ No_unit

O=C1CCC(N2C(=O)c3ccccc3C2=O)C(=O)N1 (stereo unspecified) [THALIDOMIDE]
inhibition at 50 µM [8]: 15%
inhibition at 25 µM [19]: < 10%
viability at 50 µM [9]: 98%

COc1cc(CCc2cnc3nc(N)nc(N)c3n2)cc(OC)c1OC
Ki [1]: 18 nM
Ratio [2]: 2050
MIC [3]: > 281 µM

COc1cc(Cc2cnc(N)nc2N)cc(OC)c1OC [TRIMETHOPRIM]
Ki [1]: 70 nM
Ratio [2]: 54.6
MIC [3]: 34 µM (≈ 9.87 µg/mL)

Nc1ccc(F)c(F)c1
inhibition at 50 µM [8]: 19%
viability at 50 µM [9]: 99%

N#Cc1cc([N+](=O)[O-])cnc1SC(=S)N1CCCCCC1
MIC [4]: 1.56 mg/L (≈ 4.84 µM)
MIC [5]: 1.56 mg/L (≈ 4.84 µM)
MIC [6]: 0.4 mg/L (≈ 1.24 µM)
MIC [7]: 0.8 mg/L (≈ 2.48 µM)
Activity [17]: 6.64 ×10⁷ No_unit
Activity [18]: 0.28 ×10⁷ No_unit

O=C1c2c(F)c(F)c(F)c(F)c2C(=O)N1c1ccc(F)c(F)c1
inhibition at 50 µM [8]: < 10%
viability at 50 µM [9]: 74%
